Data reported in patent publication US20240174744A1, “METHODS OF TREATMENT USING PROTEIN BINDERS TO IRHOM2 EPITOPES” (SCIRHOM GMBH, priority 2021, published 2024).

Assays:
[1] = tested on: PMA-induced release of TGFα from PC3 cells; test: ELISA-based TGFα release assay, PMA-stimulated PC3 cells; assay type: cell-based; conditions: Homo sapiens, PC-3; recombinant murine antibodies 1 μg/ml; Batimastat 10 μM; PMA 25 ng/ml, 2 hours
Method: In the following study, ELISA-based TGFα release assays were performed to analyze the inhibitory effects of the antibodies of the present disclosure on PMA-induced release of endogenous TGFα from human PC3 prostate cancer cells.
In brief, on day 1, Nunc black MaxiSorp® 96-well plates (Thermo Fisher Scientific, USA) were coated overnight with 100 μl per well of goat anti-human TGFα capture antibody (provided as part of the DuoSet ELISA kit) at 0.4 μg/ml TBS at 4° C. On day 2, the capture antibody solution was removed and MaxiSorp® plates were blocked with 300 μl per well of TBS, 1% BSA at room temperature for 3 hours. […] Using an infinite M1000 (Tecan Group, Switzerland) microplate reader, the fluorescence of each well was collected at an excitation wavelength of 435 nm and an emission wavelength of 555 nm.

[2] = tested on: PMA-induced release of HB-EGF from U-937 cells; test: ELISA-based HB-EGF release assay, PMA-stimulated U-937 cells; assay type: cell-based; conditions: Homo sapiens, murine (m) and chimeric (ch) antibodies 3 μg/ml, Batimastat 10 μM, PMA 25 ng/ml, 6 hours
Method: Complementary to Example 29 described above, ELISA-based HB-EGF release assays were performed to verify the inhibitory effects of the antibodies of the present disclosure on PMA-induced release of endogenous HB-EGF from human U-937 cells.
The production of the recombinant antibody material that was used in this example is identical to the one described in Example 25. The ELISA-based HB-EGF release assay that was used in this example is identical with the one described in Example 30, with the only difference, that U-937 (European Collection of Authenticated Cell Cultures, UK) cells were used instead of THP-1 (American Type Culture Collection, USA) cells.

For `CNC(=O)[C@H](Cc1ccccc1)NC(=O)[C@H](CC(C)C)[C@H](CSc1cccs1)C(=O)NO` [Batimastat], the inhibition at 10 µM [1] was 99.1% and the inhibition at 10 µM [2] was 100%.
